Measurements reported in patent US11560376B2, “Amino acid compounds and methods of use” (Pliant Therapeutics, Inc., priority 2018, dated 2023).

target: recombinant human integrin αvβ6 (Homo sapiens (Human), UniProt P06756+P18564); assay: Solid phase integrin αvβ6 binding assay; settings: TGFβ1 LAP as ligand, IC50 presented in four ranges, read-out: αvβ6 Inhibition IC50 (nM) - range
Description: (§1) Microplates were coated with recombinant human integrin αvβ6 (2 μg/mL) in PBS (100 μL/well 25° C., overnight). The coating solution was removed, washed with wash buffer (0.05% Tween 20; 0.5 mM MnCl2; in 1×TBS). The plate was blocked with 200 μL/well of Block Buffer (1% BSA; 5% sucrose; 0.5 mM MnCl2; in 1×TBS) at 37° C. for 2 h. Dilutions of testing compounds and recombinant TGFβ1 LAP (0.67 μg/mL) in binding buffer (0.05% BSA; 2.5% sucrose; 0.5 mM MnCl2; in 1×TBS) were added. The plate was incubated for 2 hours at 25° C., washed, and incubated for 1 hour with Biotin-Anti-hLAP. Bound antibody was detected by peroxidase-conjugated streptavidin. The IC50 values for testing compounds were calculated by a four-parameter logistic regression.
The compounds tested were compound samples prepared according to procedures described in the Synthetic Examples section, with the stereochemical purity as indicated in the Examples.
as §1, with “A third series of exemplary compounds was selected for testing in the solid phase integrin αvβ6 binding assay. The compounds tested were compound samples prepared according to procedures described in the Synthetic Examples section, with the stereochemical purity as indicated in the Examples. As in Example B1, microplates” for “Microplates”

Sequence of recombinant human integrin αvβ6 (P06756 31-992): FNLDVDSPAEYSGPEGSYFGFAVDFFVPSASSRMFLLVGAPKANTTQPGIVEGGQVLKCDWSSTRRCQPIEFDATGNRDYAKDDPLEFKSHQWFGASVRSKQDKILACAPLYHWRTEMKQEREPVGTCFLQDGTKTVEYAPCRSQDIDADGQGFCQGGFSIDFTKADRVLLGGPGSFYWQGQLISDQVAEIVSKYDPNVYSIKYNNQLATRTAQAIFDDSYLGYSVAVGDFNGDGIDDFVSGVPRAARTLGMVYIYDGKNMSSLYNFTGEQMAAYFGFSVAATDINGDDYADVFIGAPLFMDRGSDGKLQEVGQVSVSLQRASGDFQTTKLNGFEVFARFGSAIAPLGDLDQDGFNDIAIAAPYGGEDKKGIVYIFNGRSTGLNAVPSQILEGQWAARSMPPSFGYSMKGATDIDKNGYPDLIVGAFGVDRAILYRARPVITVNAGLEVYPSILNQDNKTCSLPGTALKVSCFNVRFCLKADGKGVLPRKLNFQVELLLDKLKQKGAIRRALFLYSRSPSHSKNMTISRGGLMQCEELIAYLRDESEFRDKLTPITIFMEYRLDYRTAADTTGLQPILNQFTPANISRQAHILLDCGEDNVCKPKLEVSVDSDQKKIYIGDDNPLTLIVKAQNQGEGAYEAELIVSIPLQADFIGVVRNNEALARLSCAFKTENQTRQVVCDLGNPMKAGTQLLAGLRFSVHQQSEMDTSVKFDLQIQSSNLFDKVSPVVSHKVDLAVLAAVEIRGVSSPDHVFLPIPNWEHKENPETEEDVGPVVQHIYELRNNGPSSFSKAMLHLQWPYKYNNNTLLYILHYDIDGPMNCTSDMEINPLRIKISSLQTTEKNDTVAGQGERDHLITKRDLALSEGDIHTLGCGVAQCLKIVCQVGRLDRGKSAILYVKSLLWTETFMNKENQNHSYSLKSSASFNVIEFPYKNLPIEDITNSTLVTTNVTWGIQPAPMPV
Sequence of recombinant human integrin αvβ6 (P18564 22-707): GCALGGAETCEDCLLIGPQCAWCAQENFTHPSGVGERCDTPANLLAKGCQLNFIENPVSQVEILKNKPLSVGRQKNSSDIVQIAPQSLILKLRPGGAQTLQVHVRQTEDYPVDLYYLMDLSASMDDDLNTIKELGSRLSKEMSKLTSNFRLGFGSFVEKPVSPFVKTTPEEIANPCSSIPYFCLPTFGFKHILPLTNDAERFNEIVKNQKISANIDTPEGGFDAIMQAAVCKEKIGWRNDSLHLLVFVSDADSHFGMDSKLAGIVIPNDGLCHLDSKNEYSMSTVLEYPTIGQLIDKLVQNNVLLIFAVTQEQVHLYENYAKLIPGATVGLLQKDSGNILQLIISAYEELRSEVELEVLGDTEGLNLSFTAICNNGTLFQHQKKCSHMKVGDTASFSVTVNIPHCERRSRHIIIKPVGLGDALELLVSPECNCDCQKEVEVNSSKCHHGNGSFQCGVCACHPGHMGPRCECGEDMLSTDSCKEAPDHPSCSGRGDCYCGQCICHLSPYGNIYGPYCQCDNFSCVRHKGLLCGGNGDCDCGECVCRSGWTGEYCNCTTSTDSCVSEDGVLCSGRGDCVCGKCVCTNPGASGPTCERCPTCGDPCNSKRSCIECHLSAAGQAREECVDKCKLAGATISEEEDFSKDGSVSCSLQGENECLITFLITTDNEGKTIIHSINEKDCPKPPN

SMILES	IC50
O=C(O)[C@H](CCN(CCCCc1ccc2c(n1)NCCC2)C1CC1)Nc1ccncn1 [Compound 2, (S)-4-(cyclopropyl(4-(5,6,7,8-tetrahydro-1,8-naphthyridin-2-yl)butyl)amino)-2-(pyrimidin-4-ylamino) butanoic acid]	250 to 1000 nM
CO[C@H](C)CN(CCCCc1ccc2c(n1)NCCC2)CC[C@H](Nc1ncncc1-c1ccccc1)C(=O)O [Compound 81, (S)-4-(((R)-2-methoxypropyl) (4-(5,6,7,8-tetrahydro-1,8-naphthyridin-2-yl)butyl)amino)-2-((5-phenylpyrimidin-4-yl)amino) butanoic acid]	< 50 nM
COC[C@@H](F)CN(CCCCc1ccc2c(n1)NCCC2)CC[C@H](Nc1ncc(C#N)cn1)C(=O)O [Compound 84, (S)-2-((5-cyanopyrimidin-2-yl)amino)-4-(((S)-2-fluoro-3-methoxypropyl) (4-(5,6,7,8-tetrahydro-1,8-naphthyridin-2-yl)butyl)amino) butanoic acid]	250 to 1000 nM
Cn1ncc2c(N[C@@H](CCN(CCCCc3ccc4c(n3)NCCC4)CCS(C)(=O)=O)C(=O)O)ncnc21 [Compound 101, (S)-2-((1-methyl-1H-pyrazolo[3,4-d]pyrimidin-4-yl)amino)-4-((2-(methylsulfonyl)ethyl) (4-(5,6,7,8-tetrahydro-1,8-naphthyridin-2-yl)butyl)amino) butanoic acid]	50 to 250 nM
COC[C@@H](F)CN(CCCCc1ccc2c(n1)NCCC2)CC[C@H](Nc1ccncn1)C(=O)O [Compound 127, (S)-4-(((S)-2-fluoro-3-methoxypropyl) (4-(5,6,7,8-tetrahydro-1,8-naphthyridin-2-yl)butyl)amino)-2-(pyrimidin-4-ylamino) butanoic acid]	250 to 1000 nM
O=C(O)[C@H](CCN(CCCCc1ccc2c(n1)NCCC2)CCC(F)F)Nc1ncc(Br)cn1 [Compound 131, (S)-2-((5-bromopyrimidin-2-yl)amino)-4-((3,3-difluoropropyl) (4-(5,6,7,8-tetrahydro-1,8-naphthyridin-2-yl)butyl)amino) butanoic acid]	50 to 250 nM
O=C(O)[C@H](CCN(CCCCc1ccc2c(n1)NCCC2)CCC(F)F)Nc1ncc(C2CC2)cn1 [Compound 135, (S)-2-((5-cyclopropylpyrimidin-2-yl)amino)-4-((3,3-difluoropropyl) (4-(5,6,7,8-tetrahydro-1,8-naphthyridin-2-yl)butyl)amino) butanoic acid]	50 to 250 nM
